Values of other authors as cited in US20150346185A1, “DIAGNOSIS OF CYSTIC FIBROSIS” (priority 2012, published 2015).

Molecular target: T1, Na+ channel ENaC (Homo sapiens, UniProt P37088+P51168+P51170)
T1 construct: from tissue; host or cells: human nasal epithelium (healthy individuals and cystic fibrosis patients)
Details: healthy patients, infusion of amiloride

T1 sequence (P51168 whole entry): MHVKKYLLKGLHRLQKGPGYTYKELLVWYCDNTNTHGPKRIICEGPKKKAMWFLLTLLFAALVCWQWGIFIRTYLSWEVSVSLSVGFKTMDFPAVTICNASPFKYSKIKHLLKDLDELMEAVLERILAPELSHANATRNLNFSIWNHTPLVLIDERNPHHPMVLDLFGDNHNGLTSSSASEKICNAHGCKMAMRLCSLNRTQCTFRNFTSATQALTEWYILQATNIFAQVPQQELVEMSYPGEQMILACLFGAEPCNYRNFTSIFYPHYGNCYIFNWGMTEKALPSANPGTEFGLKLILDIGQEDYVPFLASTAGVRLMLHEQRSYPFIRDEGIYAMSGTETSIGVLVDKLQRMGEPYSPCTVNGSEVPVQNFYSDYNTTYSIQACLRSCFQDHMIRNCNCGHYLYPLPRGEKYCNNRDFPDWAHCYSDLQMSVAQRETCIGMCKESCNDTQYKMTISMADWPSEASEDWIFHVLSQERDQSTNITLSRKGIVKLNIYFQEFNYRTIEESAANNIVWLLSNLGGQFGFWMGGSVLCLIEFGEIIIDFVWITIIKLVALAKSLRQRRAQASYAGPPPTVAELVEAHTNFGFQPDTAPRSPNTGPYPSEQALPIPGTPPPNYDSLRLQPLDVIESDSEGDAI
T1 sequence (P37088 whole entry): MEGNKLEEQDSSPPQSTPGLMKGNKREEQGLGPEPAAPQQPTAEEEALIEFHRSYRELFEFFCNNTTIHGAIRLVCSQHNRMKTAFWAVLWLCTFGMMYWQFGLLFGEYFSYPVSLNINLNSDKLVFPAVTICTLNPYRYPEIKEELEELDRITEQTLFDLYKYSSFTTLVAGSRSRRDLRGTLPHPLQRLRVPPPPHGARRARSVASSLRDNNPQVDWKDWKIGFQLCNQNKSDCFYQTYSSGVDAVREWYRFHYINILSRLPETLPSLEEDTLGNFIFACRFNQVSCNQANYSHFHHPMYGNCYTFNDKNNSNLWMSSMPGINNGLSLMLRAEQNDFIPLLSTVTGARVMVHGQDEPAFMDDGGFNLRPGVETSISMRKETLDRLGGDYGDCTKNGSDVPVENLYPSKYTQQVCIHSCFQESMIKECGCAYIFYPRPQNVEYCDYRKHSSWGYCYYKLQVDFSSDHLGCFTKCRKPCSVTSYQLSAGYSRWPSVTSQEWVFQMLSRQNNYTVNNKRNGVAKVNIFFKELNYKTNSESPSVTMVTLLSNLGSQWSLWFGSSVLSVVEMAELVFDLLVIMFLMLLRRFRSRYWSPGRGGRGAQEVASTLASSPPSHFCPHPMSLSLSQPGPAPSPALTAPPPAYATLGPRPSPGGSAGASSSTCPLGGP
T1 sequence (P51170 whole entry): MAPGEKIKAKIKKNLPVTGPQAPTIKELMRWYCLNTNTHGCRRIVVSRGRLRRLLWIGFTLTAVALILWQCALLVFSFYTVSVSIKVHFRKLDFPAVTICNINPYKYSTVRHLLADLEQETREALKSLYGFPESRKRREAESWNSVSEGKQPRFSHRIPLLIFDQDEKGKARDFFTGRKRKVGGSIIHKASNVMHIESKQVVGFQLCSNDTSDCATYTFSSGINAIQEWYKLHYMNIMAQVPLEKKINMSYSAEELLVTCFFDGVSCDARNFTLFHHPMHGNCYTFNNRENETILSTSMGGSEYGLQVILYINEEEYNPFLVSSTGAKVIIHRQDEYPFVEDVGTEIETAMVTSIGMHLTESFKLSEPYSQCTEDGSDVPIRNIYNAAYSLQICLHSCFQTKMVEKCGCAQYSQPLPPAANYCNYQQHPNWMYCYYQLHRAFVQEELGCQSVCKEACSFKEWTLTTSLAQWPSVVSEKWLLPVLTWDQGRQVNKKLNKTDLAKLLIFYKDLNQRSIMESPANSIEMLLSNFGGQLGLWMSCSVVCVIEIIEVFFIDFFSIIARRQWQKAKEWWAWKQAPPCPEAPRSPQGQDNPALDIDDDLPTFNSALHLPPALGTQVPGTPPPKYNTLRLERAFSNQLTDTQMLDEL

N=C(N)NC(=O)c1nc(Cl)c(N)nc1N [amiloride]
reduction of nasal transepithelial potential difference: 55%
